What all share (format): biochemical
In data set [1] the target is HisVAC cephalosporin C acylase (Pseudomonas N176 derived, parent Seq. ID #1) variant A215Y. The data set is described as follows: Product inhibition of mutant A215Y. As for the experimental part:
(§1) Kinetics parameters of the mutants and HisVAC acylase were determined measuring the hydrolysis of cephalosporin C or glutaryl 7-ACA in 0.1 M phosphate buffer solution, pH 8.0 at 37° C. (then converted in units at 25° C.). The amount of 7-ACA is determined spectrophotometrically, using a standard curve, measuring the yellow intensity at 415 nm (Schiff base), resulting upon reaction with p-dimethylaminobenzaldehyde, using modified Bulasingham method (Biochem. Biophys. Acta 276, 250, 1972).

The target of data set [2] is HisVAC cephalosporin C acylase (Pseudomonas N176 derived, parent Seq. ID #1) variant A215F. Description: Product inhibition of mutant A215F. As for the experimental part: as §1
In data set [3] the test system is HisVAC cephalosporin C acylase (Pseudomonas N176 derived, parent Seq. ID #1) variant A215E. The data set is described as follows: Hydrolysis kinetics of mutant A215E. The note with it: for Km: 0.1 M phosphate; for Km / Vmax: pH 8.0, 37° C.; for Vmax: converted in units at 25° C. As for the experimental part:
(§2) 1. Site-Directed Mutagenesis
as §1
(§3) One acylase unit is the amount of enzyme (in solution or immobilized) which, under the assay conditions, produces one micromole of 7-ACA/minute.

The test system of data set [4] is HisVAC cephalosporin C acylase (Pseudomonas N176 derived, parent Seq. ID #1) variant A215L. The data set is described as follows: Hydrolysis kinetics of mutant A215L. The note with it: for Km: 0.1 M phosphate; for Km / Vmax: pH 8.0, 37° C.; for Vmax: converted in units at 25° C.; for Inhibition after: substrate concentration after which inhibition occurs. The procedure: as §2, §1, §3

Data set [5] has as its system HisVAC cephalosporin C acylase, wild-type (designed on Pseudomonas N176 acylase, Phe270, C-terminal LEHHHHHH), Seq. ID #1. Description: Hydrolysis kinetics of wild-type HisVAC acylase. To be noted: for Km: 0.1 M phosphate; for Km / Vmax: pH 8.0, 37° C.; for Vmax: converted in units at 25° C.; for Inhibition after: substrate concentration after which inhibition occurs. The procedure: Said sequence was introduced in order to make the subsequent chromatographic purification easier, using pET24 plasmid as the cloning and expression vector. This plasmid is resistant to kanamycin and is able to insert a “His-Tag sequence” at the C-terminus of the protein and a “T7-Tag sequence” at the N-terminus.
as §1, §3

In data set [6] the test system is HisVAC cephalosporin C acylase (Pseudomonas N176 derived, parent Seq. ID #1) variant H296S. Description: Hydrolysis kinetics of mutant H296S. The note with it: for Km: 0.1 M phosphate; for Km / Vmax: pH 8.0, 37° C.; for Vmax: converted in units at 25° C.; for Inhibition after: substrate concentration after which inhibition occurs. The procedure: as §2, §1, §3
For data set [7], the system named is HisVAC cephalosporin C acylase (Pseudomonas N176 derived, parent Seq. ID #1) variant H296T. The data set is described as follows: Hydrolysis kinetics of mutant H296T. The note with it: for Km: 0.1 M phosphate; for Km / Vmax: pH 8.0, 37° C.; for Vmax: converted in units at 25° C.; for Inhibition after: substrate concentration after which inhibition occurs. The procedure:
as §2, §1, §3

The subject of data set [8] is HisVAC cephalosporin C acylase (Pseudomonas N176 derived, parent Seq. ID #1) variant H296N. The data set is described as follows: Hydrolysis kinetics of mutant H296N. The note with it: for Km: 0.1 M phosphate; for Km / Vmax: pH 8.0, 37° C.; for Vmax: converted in units at 25° C.; for Inhibition after: substrate concentration after which inhibition occurs. As for the experimental part:
as §2, §1, §3

Data set [9] concerns HisVAC cephalosporin C acylase (Pseudomonas N176 derived, parent Seq. ID #1) variant A215F. The data set is described as follows: Hydrolysis kinetics of mutant A215F. The note with it: for Km: 0.1 M phosphate; for Km / Vmax: pH 8.0, 37° C.; for Vmax: converted in units at 25° C. As for the experimental part:
as §2, §1, §3

Data set [10] has as its system HisVAC cephalosporin C acylase (Pseudomonas N176 derived, parent Seq. ID #1) variant A215V. The data set is described as follows: Hydrolysis kinetics of mutant A215V. To be noted: for Km: 0.1 M phosphate; for Km / Vmax: pH 8.0, 37° C.; for Vmax: converted in units at 25° C.; for Inhibition after: substrate concentration after which inhibition occurs. The procedure: as §2, §1, §3

In data set [11] the test system is HisVAC cephalosporin C acylase (Pseudomonas N176 derived, parent Seq. ID #1) variant A215Y. The data set is described as follows: Hydrolysis kinetics of mutant A215Y. To be noted: for Km: 0.1 M phosphate; for Km / Vmax: pH 8.0, 37° C.; for Vmax: converted in units at 25° C.; for Inhibition after: substrate concentration after which inhibition occurs. As for the experimental part: as §2, §1, §3

Data set [12] can be described thus: Acylase kinetics, hydrolysis of cephalosporin C (7-ACA determined at 415 nm with p-dimethylaminobenzaldehyde). The note with it: substrate Cef C; for Km: 0.1 M phosphate buffer pH 8.0, 37° C.; for Vmax (U/mg): 0.1 M phosphate buffer pH 8.0, 37° C. (converted in units at 25° C.); for Inhibition after: substrate concentration after which inhibition is seen. The procedure: as §1, §3

Data set [13] in a line: Acylase kinetics, hydrolysis of glutaryl 7-ACA (7-ACA determined at 415 nm with p-dimethylaminobenzaldehyde). The note with it: substrate Gl-7-ACA; for Km: 0.1 M phosphate buffer pH 8.0, 37° C.; for Vmax (U/mg): 0.1 M phosphate buffer pH 8.0, 37° C. (converted in units at 25° C.); for Inhibition after: substrate concentration after which inhibition is seen. The procedure:
as §1, §3

Where [14] appears, read: substrate Gl-7-ACA, read-out: Ki.
[15] abbreviates: substrate concentration after which inhibition occurs.

Numbering of substitutions follows the chain as printed. Names may count otherwise. Where two headings read alike, the source gives them in different places.

As usually defined, the Ki is the equilibrium dissociation constant of an inhibitor or competing ligand from its target. On to `CC(=O)OCC1=C(C(=O)O)N2C(=O)[C@@H](N)[C@H]2SC1` [7-ACA, 7-amino-cephalosporanic acid], for which the Ki in [1] (setting [14]) was 11.3 mM; in data set [2] (substrate Gl-7-ACA) it was 4.7 mM.

Usually Km stands for the substrate concentration at which the rate is half of its maximum. Regarding `CC(=O)OCC1=C(C(=O)O)N2C(=O)[C@@H](NC(=O)CCC[C@@H](N)C(=O)O)[C@H]2SC1` [Cef C, cephalosporin C], the Km in data set [3] stood at 3.2 mM; in data set [4], 9.5 mM; in data set [5], 8.2 mM; in [6] it was 7.7 mM; in [7] it was 4.8 mM; in [8], 5.2 mM. Also, the Km in data set [9] is 7.7 mM; in data set [10], 8.3 mM; in [11] it was 6.9 mM. In addition, the Vmax came out at 0.16 U/mg in data set [3]; 0.75 U/mg in data set [4]; 0.23 U/mg in [5]; 0.63 U/mg in [6]; 0.2 U/mg in data set [7]; 0.27 U/mg in [8]. For the same molecule, the Vmax in [9] worked out at 0.21 U/mg; in [10] it was 0.78 U/mg; in data set [11], 1.8 U/mg. Besides, the Inhibition after was 12.5 mM in [4]; 50 mM in data set [5]; 25 mM in [6]; 60 mM in [7]; 50 mM in data set [8]; 50 mM in [10]. In addition, the Inhibition after in data set [11] stood at 25 mM.

For `CC(=O)OCC1=C(C(=O)O)N2C(=O)[C@@H](NC(=O)CCCC(=O)O)[C@H]2SC1` [Gl-7-ACA, glutaryl-7-ACA], the Km came out at 1 mM in data set [3]; 1.7 mM in [4]; 1.6 mM in data set [5]; 0.7 mM in data set [6]; 2 mM in [7]; 2.8 mM in [8]. Moreover, the Km in [9] turned out to be 0.85 mM; in data set [10], 1.2 mM; in data set [11], 1.7 mM. Also, the Vmax in data set [3] is 2 U/mg; in data set [4] it was 6.2 U/mg; in data set [5], 24.2 U/mg; in [6], 2.0 U/mg; in data set [7] it was 0.67 U/mg; in data set [8], 4.3 U/mg. For the same molecule, the Vmax turned out to be 3.3 U/mg in data set [9], 12.5 U/mg in data set [10] and 16 U/mg in data set [11]. Also, the Inhibition after in data set [3] (setting [15]) was determined as 25 mM; in [4], 12.5 mM; in [5] it was 12.5 mM; in data set [6], 25 mM; in data set [7] it was 50 mM; in [8] it was 50 mM. Moreover, the Inhibition after in [9] (setting [15]) is on record as 50 mM; in data set [10], 12.5 mM; in data set [11], 12.5 mM.

For `O=C(O)CCCC(=O)O` [Glutaric Acid], the figures for the Ki in [1] (setting [14]) and in [2] (substrate Gl-7-ACA) were 6.1 mM and 2.1 mM, respectively.

`N[C@H](CCCC(=O)O)C(=O)O` [α-Aminoadipic]: the Ki result in [1] (substrate Cef C) was “no inhibition”; in data set [2] (substrate Cef C), 85.2 mM.

B1: H296F: HisVAC mutant, histidine 296 replaced with Phe (protein)
chain: MTMAANTDRAVLQAALPPLSGSLPIPGLSASVRVRRDAWGIPHIKASGEADAYRALGFVHSQDRLFQMELTRRKALGRAAEWLGAEAAEADILVRRLGMEKVCRRDFEALGVEAKDMLRAYVAGVNAFLASGAPLPVEYGLLGAEPEPWEPWHSIAVMRRLGLLMGSVWFKLWRMLALPVVGAANALKLRYDDGGRDLLCIPPGAEADRLEADLATLRPAVDALLKAMGGDASDAAGGGSNNWAVAPGRTATGRPILAGDPHRVFEIPGFYAQHHLACDRFDMIGLTVPGVPGFPFFAHNGKVAYCVTHAFMDIHDLYLEQFAGEGRTARFGNDFEPVAWSRDRIAVRGGADREFDIVETRHGPVIAGDPRDGAALTLRSVQFAETDLSFDCLTRMPGASTVAQLYDATRGWGLIDHNLVAGDVAGSIGHLVRARVPSRPRENGWLPVPGWSGEHEWRGWIPHEAMPRVIDPPGGIIVTANNRVVADDHPDYLCTDCHPPYRAERIMKRLVANPAFAVDDAAAIHADTLSPHVGLLRRRLEALGARDDSAAEGLRQMLVAWDGRMDAASEVASAYNAFRRALTRLVTDRSGLEQAISHPFAAVAPGVSPQGQVWWAVPTLLRDDDAGMLKGWSWDQALSEALSVASQNLTGRSWGEEHRPRFTHPLATQFPAWAGLLNPASRPIGGDGDTVLANGLVPSAGPQATYGALSRYVFDVGNWDNSRWVVFHGASGHPASAHYADQNAPWSDCAMVPMLYSWDRIAAEAVTSQELVPALEHHHHHH
Regarding B1, in data set [12], the Michaelis constant (Km) was 4.1 mM, the “Vmax (U/mg)” value is recorded as 0.05 U/mg and the Inhibition after is 60 mM. Besides, in [13], the Km is 1.9 mM, the “Vmax (U/mg)” value was found to be 1.7 U/mg and the Inhibition after is listed as 50 mM.

B2: D416Y: HisVAC mutant, aspartic acid 416 replaced with Tyr (protein)
chain: B1 chain with F296H, D416Y
Consider B2, for which, in data set [12], the Km was determined as 7.2 mM and the “Vmax (U/mg)” value is given as 0.66 U/mg. Moreover, in data set [13], the Km came out at 1.75 mM, the “Vmax (U/mg)” value turned out to be 4.9 U/mg and the Inhibition after was found to be 25 mM.

B3: A215Y-H296S: HisVAC double mutant, alanine 215 replaced with Tyr and histidine 296 replaced with Ser (protein)
chain: B1 chain with A215Y, F296S
Consider B3, for which, in [12], the Km is 10 mM, the “Vmax (U/mg)” value was 0.66 U/mg and the Inhibition after turned out to be 40 mM. Also, in data set [13], the Michaelis constant (Km) turned out to be 4 mM, the “Vmax (U/mg)” value worked out at 2.2 U/mg and the Inhibition after is recorded as 25 mM.

B4: D416Y-H417Y: HisVAC double mutant, aspartic acid 416 and histidine 417 replaced with Tyr (protein)
chain: B1 chain with F296H, D416Y, H417Y
For B4, in data set [12], the Km came out at 13.1 mM, the “Vmax (U/mg)” value is on record as 4.2 U/mg and the Inhibition after stood at 50 mM. Moreover, in data set [13], the Km amounted to 9 mM, the “Vmax (U/mg)” value is on record as 1.2 U/mg and the Inhibition after came to 12.5 mM.

B5: H417Y: HisVAC mutant, histidine 417 replaced with Tyr (protein)
chain: B1 chain with F296H, H417Y
Turning to B5, in [12], the Km stood at 12.3 mM, the “Vmax (U/mg)” value was determined as 0.05 U/mg and the Inhibition after was determined as 50 mM. Further, in [13], the Michaelis constant (Km) is 4.3 mM and the “Vmax (U/mg)” value turned out to be 14.8 U/mg.
